In ChEMBL document CHEMBL1138938, “Design, synthesis, and SAR studies on a series of 2-pyridinylpiperazines as potent antagonists of the melanocortin-4 receptor” (Bioorg Med Chem Lett, 2006):

Target: Melanocortin receptor 4 (Homo sapiens, UniProt P32245)
Assay: Displacement of [125I]NDP-MSH from human MC4R expressed in HEK293 cells
Assay type: cell-based
Conditions: not given

Chain of Melanocortin receptor 4 (P32245 whole entry): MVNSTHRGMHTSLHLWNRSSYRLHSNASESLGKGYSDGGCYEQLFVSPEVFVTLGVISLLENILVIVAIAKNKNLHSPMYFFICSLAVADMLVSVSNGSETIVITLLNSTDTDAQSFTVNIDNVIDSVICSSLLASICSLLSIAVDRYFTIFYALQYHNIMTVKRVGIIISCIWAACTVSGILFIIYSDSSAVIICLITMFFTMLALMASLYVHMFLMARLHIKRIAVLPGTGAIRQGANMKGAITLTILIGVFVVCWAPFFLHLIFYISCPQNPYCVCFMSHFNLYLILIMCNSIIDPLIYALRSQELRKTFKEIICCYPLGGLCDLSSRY

SMILES | Ki
NCCC(=O)N[C@H](Cc1ccc(Cl)cc1Cl)C(=O)N1CCN(c2ncccc2CNC(CO)CO)CC1 | 1.5 µM
CC(CO)NCc1cccnc1N1CCN(C(=O)[C@@H](Cc2ccc(Cl)cc2Cl)NC(=O)CCN)CC1C (stereo not given in full) | 0.42 µM
NCCC(=O)N[C@H](Cc1ccc(Cl)cc1Cl)C(=O)N1CCN(c2ncccc2CNCCO)CC1 | 0.52 µM
COc1ccccc1OC(=O)NCc1cccnc1N1CCN(C(=O)[C@@H](Cc2ccc(Cl)cc2Cl)NC(=O)CCN)CC1 | 1.8 µM
NCCC(=O)N[C@H](Cc1ccc(Cl)cc1Cl)C(=O)N1CCN(c2ncccc2CNC(=O)Oc2ccccc2)CC1 | 1.2 µM
CCC(COC)NCc1cccnc1N1CCN(C(=O)[C@@H](Cc2ccc(Cl)cc2Cl)NC(=O)CCN)CC1 (stereo not given in full) | 0.2 µM
CC(=O)N[C@H](Cc1ccc(Cl)cc1Cl)C(=O)N1CCN(c2ncccc2CNCCc2cccs2)CC1 | 0.021 µM
COCC(C)NCc1cccnc1N1CCN(C(=O)[C@@H](Cc2ccc(Cl)cc2Cl)NC(C)=O)CC1 (stereo not given in full) | 0.18 µM
COc1ccccc1CCNCc1cccnc1N1CCN(C(=O)[C@@H](Cc2ccc(Cl)cc2Cl)NC(C)=O)CC1 | 0.01 µM
NCCC(=O)N[C@H](Cc1ccc(Cl)cc1Cl)C(=O)N1CCN(c2ncccc2CNCC(F)(F)F)CC1 | 0.17 µM
COc1ccccc1CCNCc1ccccc1N1CCN(C(=O)[C@@H](Cc2ccc(Cl)cc2Cl)NC(=O)CCN)CC1 | 0.0016 µM
NCCC(=O)N[C@H](Cc1ccc(Cl)cc1Cl)C(=O)N1CCN(c2ncccc2CNC(=O)c2cccs2)CC1 | 1.8 µM
COCC(C)NCc1cccnc1N1CCN(C(=O)[C@@H](Cc2ccc(Cl)cc2Cl)NC(=O)CCN)CC1 (stereo not given in full) | 0.087 µM
NCCC(=O)N[C@H](Cc1ccc(Cl)cc1Cl)C(=O)N1CCN(c2ncccc2CNCCc2cccs2)CC1 | 0.015 µM
CC(C)(CO)NCc1cccnc1N1CCN(C(=O)[C@@H](Cc2ccc(Cl)cc2Cl)NC(=O)CCN)CC1 | 0.48 µM
NCCC(=O)N[C@H](Cc1ccc(Cl)cc1Cl)C(=O)N1CCN(c2ncccc2CNC(=O)c2ccco2)CC1 | 2.6 µM
CCC(CO)NCc1cccnc1N1CCN(C(=O)[C@@H](Cc2ccc(Cl)cc2Cl)NC(=O)CCN)CC1 (stereo not given in full) | 0.71 µM
COCC(C)NCc1ccccc1N1CCN(C(=O)[C@@H](Cc2ccc(Cl)cc2Cl)NC(=O)CCN)CC1 (stereo not given in full) | 0.0088 µM
CC(C)NC(=O)NCc1cccnc1N1CCN(C(=O)[C@@H](Cc2ccc(Cl)cc2Cl)NC(=O)CCN)CC1 | 1.3 µM
CC(=O)NCc1cccnc1N1CCN(C(=O)[C@@H](Cc2ccc(Cl)cc2Cl)NC(=O)CCN)CC1 | 2.8 µM

Now from value to molecule:

Ki | SMILES
0.0067 µM | COc1ccccc1CCNCc1cccnc1N1CCN(C(=O)[C@@H](Cc2ccc(Cl)cc2Cl)NC(=O)CCN)CC1
0.45 µM | NCCC(=O)N[C@H](Cc1ccc(Cl)cc1Cl)C(=O)N1CCN(c2ncccc2CNC(=O)Cc2ccccc2F)CC1
0.75 µM | NCCC(=O)N[C@H](Cc1ccc(Cl)cc1Cl)C(=O)N1CCN(c2ncccc2CNC(=O)NCc2cccs2)CC1
0.13 µM | NCCC(=O)N[C@H](Cc1ccc(Cl)cc1Cl)C(=O)N1CCN(c2ncccc2CNCc2ccccc2F)CC1
1.3 µM | COc1ccccc1NC(=O)NCc1cccnc1N1CCN(C(=O)[C@@H](Cc2ccc(Cl)cc2Cl)NC(=O)CCN)CC1
2.2 µM | NCCC(=O)N[C@H](Cc1ccc(Cl)cc1Cl)C(=O)N1CCN(c2ncccc2CNC(=O)c2ccc(F)cc2)CC1
0.36 µM | COc1ccccc1CC(=O)NCc1cccnc1N1CCN(C(=O)[C@@H](Cc2ccc(Cl)cc2Cl)NC(=O)CCN)CC1
1.1 µM | NCCC(=O)N[C@H](Cc1ccc(Cl)cc1Cl)C(=O)N1CCN(c2ncccc2CNC(=O)Nc2ccccc2F)CC1
0.55 µM | COc1ccc(CC(=O)NCc2cccnc2N2CCN(C(=O)[C@@H](Cc3ccc(Cl)cc3Cl)NC(=O)CCN)CC2)cc1
1.5 µM | COc1ccc(C(=O)NCc2cccnc2N2CCN(C(=O)[C@@H](Cc3ccc(Cl)cc3Cl)NC(=O)CCN)CC2)cc1
1.8 µM | NCCC(=O)N[C@H](Cc1ccc(Cl)cc1Cl)C(=O)N1CCN(c2ncccc2CNC(=O)c2ccccc2)CC1
0.012 µM | NCCC(=O)N[C@H](Cc1ccc(Cl)cc1Cl)C(=O)N1CCN(c2ncccc2CNCCc2ccccc2F)CC1
1 µM | NCCC(=O)N[C@H](Cc1ccc(Cl)cc1Cl)C(=O)N1CCN(c2ncccc2CNC(=O)Cc2ccc(F)cc2)CC1
1 µM | NCCC(=O)N[C@H](Cc1ccc(Cl)cc1Cl)C(=O)N1CCN(c2ncccc2CNC(=O)NCc2ccccc2F)CC1
0.71 µM | NCCC(=O)N[C@H](Cc1ccc(Cl)cc1Cl)C(=O)N1CCN(c2ncccc2CNC(=O)Nc2ccccc2)CC1
0.56 µM | COc1ccccc1CNC(=O)NCc1cccnc1N1CCN(C(=O)[C@@H](Cc2ccc(Cl)cc2Cl)NC(=O)CCN)CC1
0.44 µM | NCCC(=O)N[C@H](Cc1ccc(Cl)cc1Cl)C(=O)N1CCN(c2ncccc2CNC(=O)OCc2ccccc2)CC1
2.8 µM | COCC(=O)NCc1cccnc1N1CCN(C(=O)[C@@H](Cc2ccc(Cl)cc2Cl)NC(=O)CCN)CC1
0.31 µM | NCCC(=O)N[C@H](Cc1ccc(Cl)cc1Cl)C(=O)N1CCN(c2ncccc2CNC(=O)Cc2cccs2)CC1

Target: Melanocortin receptor 3 (Homo sapiens, UniProt P41968)
Sequence (P41968 whole entry): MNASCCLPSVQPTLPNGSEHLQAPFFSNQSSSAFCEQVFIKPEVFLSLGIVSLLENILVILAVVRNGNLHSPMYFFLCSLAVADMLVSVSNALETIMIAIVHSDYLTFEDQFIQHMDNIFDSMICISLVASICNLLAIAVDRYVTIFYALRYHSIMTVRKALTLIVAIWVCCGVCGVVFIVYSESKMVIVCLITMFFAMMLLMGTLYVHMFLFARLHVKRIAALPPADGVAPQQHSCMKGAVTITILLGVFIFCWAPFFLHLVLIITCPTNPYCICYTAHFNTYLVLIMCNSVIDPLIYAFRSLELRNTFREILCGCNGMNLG
Assay: Displacement of [125I]NDP-MSH from human MC3R expressed in HEK293 cells
Assay type: cell-based
Conditions: not given

Ki | SMILES
5 µM | COc1ccccc1CCNCc1cccnc1N1CCN(C(=O)[C@@H](Cc2ccc(Cl)cc2Cl)NC(=O)CCN)CC1

Target: Melanocortin receptor 5 (Homo sapiens, UniProt P33032)
Sequence (P33032 whole entry): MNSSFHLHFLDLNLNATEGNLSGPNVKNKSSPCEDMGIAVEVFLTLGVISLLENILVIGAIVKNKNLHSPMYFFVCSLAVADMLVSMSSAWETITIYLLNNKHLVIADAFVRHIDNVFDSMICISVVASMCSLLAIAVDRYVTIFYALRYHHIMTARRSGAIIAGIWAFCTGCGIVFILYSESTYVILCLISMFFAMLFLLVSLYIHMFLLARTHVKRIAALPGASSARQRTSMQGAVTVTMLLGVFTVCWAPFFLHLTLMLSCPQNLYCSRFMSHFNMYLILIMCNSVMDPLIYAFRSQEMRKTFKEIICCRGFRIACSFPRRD
Assay: Displacement of [125I]NDP-MSH from human MC5R expressed in HEK293 cells
Assay type: cell-based
Conditions: not given

Ki | SMILES
2.1 µM | COc1ccccc1CCNCc1cccnc1N1CCN(C(=O)[C@@H](Cc2ccc(Cl)cc2Cl)NC(=O)CCN)CC1

System: not listed separately
Assay: Intrinsic clearance in rat liver microsome
Assay type: ADME
Conditions: liver microsomes

CLint scaled | SMILES
390 mL/min/kg | COc1ccccc1CCNCc1cccnc1N1CCN(C(=O)[C@@H](Cc2ccc(Cl)cc2Cl)NC(=O)CCN)CC1
3500 mL/min/kg | COc1ccccc1CCNCc1cccnc1N1CCN(C(=O)[C@@H](Cc2ccc(Cl)cc2Cl)NC(C)=O)CC1

System: not listed separately
Assay: Oral bioavailability in rat
Assay type: ADME, organism-based
Conditions: in vivo

bioavailability | SMILES
15% | COc1ccccc1CCNCc1cccnc1N1CCN(C(=O)[C@@H](Cc2ccc(Cl)cc2Cl)NC(=O)CCN)CC1
0% | COc1ccccc1CCNCc1cccnc1N1CCN(C(=O)[C@@H](Cc2ccc(Cl)cc2Cl)NC(C)=O)CC1
